The values that follow are results of earlier work, collected in article PMC2228077, “The bioavailability of oral GI147211 (GG211), a new topoisomerase I inhibitor” (British Journal of Cancer, 1997).

Details of data set [1]: method as in Kuhn et al, 1995; Schellens et al, 1996. The note with it: oral topotecan; ref Kuhn et al, 1995; Schellens et al, 1996; cited from earlier work.
Details of data set [2]: method as in Rowinsky et al, 1992; Verweij et al, 1993. The note with it: ref Rowinsky et al, 1992; Verweij et al, 1993; cited from earlier work.
For data set [3] the following is noted: human, in vivo, po; cited from earlier work.

SMILES strings stand for the structures. Values joined by “and” are separate entries in the source; they are usually repeats but may differ in a detail not shown here. Identical values can stand only once.

On to `CC[C@@]1(O)C(=O)OCc2c1cc1n(c2=O)Cc2cc3c(CN(C)C)c(O)ccc3nc2-1` [topotecan], for which the “bioavailability (variable systemic exposure)” value in data set [1] is 32% and 44%. In data set [2], the dose-limiting toxicity entry is recorded as “cumulative myelosuppression”.
Turning to `CC[C@@]1(O)C(=O)OCc2c1cc1n(c2=O)Cc2cc3c([N+](=O)[O-])cccc3nc2-1` [9-nitro-camptothecin], the “patients who developed CTC grade >= II diarrhoea” value in data set [3] is listed as 33%.
